Assay results from article PMC4767605 (Cancer chemotherapy and pharmacology, 2016).
Read-outs that look alike come from different tables or passages of the source.

[1] = Cohort 3 (n=3): ASP9853 37.5 mg + docetaxel 60 mg/m^2
[2] = Cohort 4 (n=7): ASP9853 50 mg + docetaxel 60 mg/m^2
[3] = Total ASP9853 combination with docetaxel (n=20)
[4] = lead-in phase, ASP9853 single agent
[5] = patients receiving ASP9853 in combination with docetaxel

SMILES: O.O.O=C(/C=C/c1ccc(Cl)cc1)N[C@@H](Cc1ccccn1)C(=O)NCC(=O)N1CCC(Oc2cc(C(F)(F)F)ncn2)CC1 [ASP9853, (2E)-3-(4-chlorophenyl)-N-[(1S)-2-oxo-2-{[2-oxo-2-(4-{[6-(trifluoromethyl)-4-pyrimidinyl]oxy}-1-piperidinyl)ethyl]amino}-1-(2-pyridinylmethyl)ethyl]acrylamide dehydrate]
- AE potentially related to ASP9853: Decreased appetite; Grade All [1]: 1 (33) n (%)
- AE potentially related to ASP9853: Diarrhea; Grade 3/4 (only Grade 3) [1]: 0 n (%)
- AE potentially related to ASP9853: Diarrhea; Grade All [1]: 1 (33) n (%)
- AE potentially related to ASP9853: Dizziness; Grade 3/4 [1]: 0 n (%)
- AE potentially related to ASP9853: Dizziness; Grade All [1]: 1 (33) n (%)
- AE potentially related to ASP9853: Fatigue; Grade 3/4 (only Grade 3) [1]: 0 n (%)
- AE potentially related to ASP9853: Fatigue; Grade All [1]: 2 (67) n (%)
- AE potentially related to ASP9853: Febrile neutropenia; Grade 3/4 [1]: 0 n (%)
- AE potentially related to ASP9853: Febrile neutropenia; Grade All [1]: 0 n (%)
- AE potentially related to ASP9853: Nausea; Grade 3/4 [1]: 0 n (%)
- AE potentially related to ASP9853: Nausea; Grade All [1]: 1 (33) n (%)
- AE potentially related to ASP9853: Neutropenia; Grade 3/4 [1]: 1 (33) n (%)
- AE potentially related to ASP9853: Neutropenia; Grade All [1]: 1 (33) n (%)
- AE potentially related to ASP9853: Neutrophil count decreased; Grade 3/4 [1]: 1 (33) n (%)
- AE potentially related to ASP9853: Neutrophil count decreased; Grade All [1]: 1 (33) n (%)
- AE potentially related to ASP9853: Overall; Grade 3/4 [1]: 2 (67) n (%)
- AE potentially related to ASP9853: Overall; Grade All [1]: 3 (100) n (%)
- AE potentially related to ASP9853: Vomiting; Grade 3/4 [1]: 0 n (%)
- AE potentially related to ASP9853: Vomiting; Grade All [1]: 0 n (%)
- AE potentially related to ASP9853: White blood cell count decreased; Grade All [1]: 2 (67) n (%)
- DLTs (Cohort 3: ASP9853 37.5 mg + docetaxel 60 mg/m^2, three patients): no DLTs were observed
- SAE considered related to ASP9853: leukopenia (Cohort 4): 1 n
- SAE considered related to ASP9853: neutropenia (Cohort 4): 1 n
- AE potentially related to ASP9853: Anemia; Grade 3/4 [2]: 0 n (%)
- AE potentially related to ASP9853: Anemia; Grade All [2]: 1 (14) n (%)
- AE potentially related to ASP9853: Asthenia; Grade 3/4 [2]: 0 n (%)
- AE potentially related to ASP9853: Asthenia; Grade All [2]: 0 n (%)
- AE potentially related to ASP9853: Constipation; Grade 3/4 [2]: 0 n (%)
- AE potentially related to ASP9853: Constipation; Grade All [2]: 1 (14) n (%)
- AE potentially related to ASP9853: Decreased appetite; Grade 3/4 [2]: 0 n (%)
- AE potentially related to ASP9853: Decreased appetite; Grade All [2]: 0 n (%)
- AE potentially related to ASP9853: Diarrhea; Grade 3/4 (only Grade 3) [2]: 0 n (%)
- AE potentially related to ASP9853: Diarrhea; Grade All [2]: 0 n (%)
- AE potentially related to ASP9853: Dizziness; Grade 3/4 [2]: 0 n (%)
- AE potentially related to ASP9853: Dizziness; Grade All [2]: 2 (29) n (%)
- AE potentially related to ASP9853: Fatigue; Grade 3/4 (only Grade 3) [2]: 1 (14) n (%)
- AE potentially related to ASP9853: Fatigue; Grade All [2]: 2 (29) n (%)
- AE potentially related to ASP9853: Febrile neutropenia; Grade 3/4 [2]: 0 n (%)
- AE potentially related to ASP9853: Febrile neutropenia; Grade All [2]: 0 n (%)
- AE potentially related to ASP9853: Nausea; Grade 3/4 [2]: 0 n (%)
- AE potentially related to ASP9853: Nausea; Grade All [2]: 1 (14) n (%)
- AE potentially related to ASP9853: Neutropenia; Grade 3/4 [2]: 2 (29) n (%)
- AE potentially related to ASP9853: Neutropenia; Grade All [2]: 2 (29) n (%)
- AE potentially related to ASP9853: Neutrophil count decreased; Grade 3/4 [2]: 1 (14) n (%)
- AE potentially related to ASP9853: Neutrophil count decreased; Grade All [2]: 1 (14) n (%)
- AE potentially related to ASP9853: Overall; Grade 3/4 [2]: 4 (57) n (%)
- AE potentially related to ASP9853: Overall; Grade All [2]: 7 (100) n (%)
- AE potentially related to ASP9853: Vomiting; Grade 3/4 [2]: 0 n (%)
- AE potentially related to ASP9853: Vomiting; Grade All [2]: 1 (14) n (%)
- AE potentially related to ASP9853: White blood cell count decreased; Grade All [2]: 2 (29) n (%)
- AE potentially related to ASP9853: Anemia; Grade 3/4 [3]: 0 n (%)
- AE potentially related to ASP9853: Anemia; Grade All [3]: 3 (15) n (%)
- AE potentially related to ASP9853: Asthenia; Grade 3/4 [3]: 0 n (%)
- AE potentially related to ASP9853: Asthenia; Grade All [3]: 2 (10) n (%)
- AE potentially related to ASP9853: Constipation; Grade 3/4 [3]: 0 n (%)
- AE potentially related to ASP9853: Constipation; Grade All [3]: 3 (15) n (%)
- AE potentially related to ASP9853: Decreased appetite; Grade 3/4 [3]: 0 n (%)
- AE potentially related to ASP9853: Decreased appetite; Grade All [3]: 2 (10) n (%)
- AE potentially related to ASP9853: Diarrhea; Grade 3/4 (only Grade 3) [3]: 1 (5) n (%)
- AE potentially related to ASP9853: Diarrhea; Grade All [3]: 4 (20) n (%)
- AE potentially related to ASP9853: Dizziness; Grade 3/4 [3]: 0 n (%)
- AE potentially related to ASP9853: Dizziness; Grade All [3]: 3 (15) n (%)
- AE potentially related to ASP9853: Fatigue; Grade 3/4 (only Grade 3) [3]: 2 (10) n (%)
- AE potentially related to ASP9853: Fatigue; Grade All [3]: 9 (45) n (%)
- AE potentially related to ASP9853: Febrile neutropenia; Grade 3/4 [3]: 2 (10) n (%)
- AE potentially related to ASP9853: Febrile neutropenia; Grade All [3]: 2 (10) n (%)
- AE potentially related to ASP9853: Nausea; Grade 3/4 [3]: 0 n (%)
- AE potentially related to ASP9853: Nausea; Grade All [3]: 4 (20) n (%)
- AE potentially related to ASP9853: Neutropenia; Grade 3/4 [3]: 4 (20) n (%)
- AE potentially related to ASP9853: Neutropenia; Grade All [3]: 4 (20) n (%)
- AE potentially related to ASP9853: Neutrophil count decreased; Grade 3/4 [3]: 2 (10) n (%)
- AE potentially related to ASP9853: Neutrophil count decreased; Grade All [3]: 2 (10) n (%)
- AE potentially related to ASP9853: Overall; Grade 3/4 [3]: 11 (55) n (%)
- AE potentially related to ASP9853: Overall; Grade All [3]: 18 (90) n (%)
- AE potentially related to ASP9853: Vomiting; Grade 3/4 [3]: 0 n (%)
- AE potentially related to ASP9853: Vomiting; Grade All [3]: 4 (20) n (%)
- AE potentially related to ASP9853: White blood cell count decreased; Grade All [3]: 5 (25) n (%)
- Patients with AEs considered to be potential DLTs (all cohorts, ASP9853 + docetaxel): Five
- Patients who met the protocol-defined DLT criteria (in Cohorts 1 and 2): three
- Patients with post-baseline maximum Grade 1 neutropenia (laboratory evaluation): three
- Patients with post-baseline maximum Grade 4 neutropenia (laboratory evaluation): eight
- AE possibly related to ASP9853: QT prolonged electrocardiogram [4]: 1 n
- AE possibly related to ASP9853: arthralgia [4]: 1 n
- AE possibly related to ASP9853: asthenia [4]: 1 n
- AE possibly related to ASP9853: gastrooesophageal reflux disease [4]: 1 n
- AE possibly related to ASP9853: leukopenia [4]: 1 n
- AE possibly related to ASP9853: nausea [4]: 1 n
- AE possibly related to ASP9853: pollakiuria [4]: 1 n
- AE possibly related to ASP9853: vomiting [4]: 1 n
- AE regardless of relationship to study drug: alopecia [5]: 30.0%
- AE regardless of relationship to study drug: decreased appetite [5]: 30.0%
- AE regardless of relationship to study drug: decreased white blood cells [5]: 35.0%
- AE regardless of relationship to study drug: fatigue [5]: 45.0%
- AE regardless of relationship to study drug: nausea [5]: 35.0%
- AE regardless of relationship to study drug: neutropenia [5]: 50.0%
